Source: US10940139B2, “Compounds that interact with the Ras superfamily for the treatment of cancers, inflammatory diseases, rasopathies, and fibrotic disease” (Shy Therapeutics LLC, priority 2017, dated 2021)

How the values were obtained:
[1] = system: IL6 production in RAW 264.7 macrophage cell line; test: Mouse IL6 quantification assay (LPS-stimulated macrophages, ELISA); assay type: cell-based; settings: RAW264.7, RAW 264.7 murine leukemia virus transformed macrophage cell lines, LPS stimulation, read-out: IL-6 % Inhibition at 30 μM
[2] = system: TNFα production in RAW 264.7 macrophage cell line; test: Mouse TNF alpha quantification assay (LPS-stimulated macrophages, ELISA); assay type: cell-based; settings: RAW264.7, RAW 264.7 murine leukemia virus transformed macrophage cell lines, LPS stimulation, read-out: TNF-α % Inhibition at 30 μM

| SMILES | inhibition at 30 µM [1] | inhibition at 30 µM [2] |
| --- | --- | --- |
| Oc1nc(-c2ccccn2)nc2c(C3CCC3)csc12 [drawing 2316] | 76 to 100% | 76 to 100% |
| COc1nc(-c2ccccn2)nc2c(C3CCCCC3)csc12 [drawing 2317] | 26 to 50% | 1 to 25% |
| COc1nc(-c2ccccn2)nc2c(C3CCC3)csc12 [drawing 2318] | 1 to 25% | 1 to 25% |
| CC(C)Oc1cnc(-c2ccccn2)nc1O [drawing 2319] | 76 to 100% | 1 to 25% |
| Oc1cccc(-c2csc3c(O)nc(-c4ccccn4)nc23)n1 [drawing 2320] | 51 to 75% | 0% |
| O=C(NCCc1ccncn1)c1csc2nc(-c3ccccn3)nc(N3CCOCC3)c12 [drawing 2321] | 1 to 25% | 0% |
| CC(C)c1nn(C)cc1-c1csc2c(O)nc(-c3ccccn3)nc12 [drawing 2322] | 76 to 100% | 1 to 25% |
| CN(C)CCOc1cccc(-c2csc3c(O)nc(-c4ccccn4)nc23)c1 [drawing 2323] | 76 to 100% | 76 to 100% |
| Oc1nc(-c2ccccn2)nc2c(-c3cc(CN4CCCC4)ccc3F)csc12 [drawing 2324] | 51 to 75% | 0% |
| N#Cc1cccc(-c2csc3c(O)nc(-c4ccccn4)nc23)c1 [drawing 2325] | 26 to 50% | 0% |
| Oc1nc(-c2ccccn2)nc2c(-c3cncnc3)csc12 [drawing 2326] | 26 to 50% | 0% |
| Cc1c(-c2csc3c(O)nc(-c4ccccn4)nc23)cnn1C [drawing 2327] | 76 to 100% | 51 to 75% |
| Cc1nn(C(C)C)cc1-c1csc2c(O)nc(-c3ccccn3)nc12 [drawing 2328] | 76 to 100% | 26 to 50% |
| Oc1nc(-c2ccccn2)nc2c(-c3cncc(C(F)F)c3)csc12 [drawing 2329] | 26 to 50% | 0% |
| COc1ccc(CCC(=O)Nc2nc(-c3ccccn3)nc3sccc23)cn1 [drawing 2330] | 76 to 100% | 51 to 75% |
| Cc1sc2c(O)nc(-c3ccccn3)nc2c1-c1ccncc1 [drawing 2331] | 26 to 50% | 0% |
| Cc1sc2c(O)nc(-c3ccccn3)nc2c1C(=O)N1CCN(c2ccccc2)CC1 [drawing 2332] | 26 to 50% | 1 to 25% |
| Cc1sc2c(O)nc(-c3ccccn3)nc2c1C(=O)N1CCN(c2ccccc2)CC1C (stereo not drawn) [drawing 2333] | 1 to 25% | 0% |
| Cc1sc2c(O)nc(-c3ccccn3)nc2c1C(=O)N1CCN(Cc2cccc(O)c2)CC1 [drawing 2334] | 26 to 50% | 0% |
| COC(=O)c1c(C)sc2c(N)nc(-c3ccccn3)nc12 [drawing 2335] | 76 to 100% | 1 to 25% |
| Oc1nc(-c2ccccn2)nc2c(C3CCCCC3)csc12 [drawing 2336] | 0% | 0% |
| Oc1nc(-c2ccccn2)nc2c(C3CCCC3)csc12 [drawing 2337] | 51 to 75% | 26 to 50% |

| SMILES | inhibition at 30 µM [1] | inhibition at 30 µM [2] |
| --- | --- | --- |
| CC(C)Cc1csc2c(O)nc(-c3ccccn3)nc12 [drawing 2338] | 76 to 100% | 76 to 100% |
| COc1cnc(-c2cn(C)cn2)nc1O [drawing 2339] | 26 to 50% | 0% |
| COc1cnc(-c2nccn2C)nc1O [drawing 2340] | 1 to 25% | 0% |
| Nc1cccc(-c2csc3c(O)nc(-c4ccccn4)nc23)n1 [drawing 2341] | 76 to 100% | 26 to 50% |
| Cc1sc2c(O)nc(-c3ccccn3)nc2c1-c1ccccc1Cl [drawing 2342] | 51 to 75% | 51 to 75% |
| COc1cnc(-c2cnc[nH]2)nc1O [drawing 2343] | 1 to 25% | 0% |
| COc1cnc(CNC(=O)c2csc3nc(-c4ccccn4)nc(N)c23)[nH]c1=O [drawing 2344] | 1 to 25% | 1 to 25% |
| Oc1nc(-c2ccccn2)nc2c(C3CC3)csc12 [drawing 2345] | 1 to 25% | 1 to 25% |
| Oc1nc(-c2ccccn2)nc2c(CC3CNC3)csc12 [drawing 2346] | 76 to 100% | 1 to 25% |
| COc1cnc(CNC(=O)c2csc3c(O)nc(-c4ccccn4)nc23)[nH]c1=O [drawing 2347] | 1 to 25% | 0% |
| COc1cnc(CNC(=O)c2cc3nc(-c4ccccn4)nc(O)c3s2)[nH]c1=O [drawing 2348] | 0% | 1 to 25% |
| Cc1sc2c(O)nc(-c3ccccn3)nc2c1Br [drawing 2349] | 26 to 50% | 0% |
| COc1cnc(CNC(=O)c2c(C)sc3c(O)nc(-c4ccccn4)nc23)[nH]c1=O [drawing 2350] | 0% | 1 to 25% |
| COc1cnc(CNC(=O)c2sc3c(O)nc(-c4ccccn4)nc3c2C)[nH]c1=O [drawing 2351] | 1 to 25% | 1 to 25% |
| O=C(c1csc2c(O)nc(-c3ccccn3)nc12)N1CCNC(c2ccc(Cl)cc2)C1 (stereo not drawn) [drawing 2352] | 76 to 100% | 1 to 25% |
| Oc1nc(-c2ccccn2)nc2c(CC3CCNC3)csc12 (stereo not drawn) [drawing 2353] | 51 to 75% | 1 to 25% |
| O=c1[nH]c(-c2ccccn2)nc2c([C@@H]3O[C@H](CO)[C@@H](O)[C@H]3O)csc12 [drawing 2354] | 1 to 25% | 26 to 50% |
| Cn1cnc(-c2nc(O)c3c(-c4ccccc4)c(-c4ccncc4)sc3n2)c1 [drawing 2355] | 0% | 1 to 25% |
| COCCNc1nc(-c2ccccn2)nc(-c2cccc(OCCN(C)C)c2)c1Oc1ccccc1 [drawing 2356] | 0% | 1 to 25% |
| COCCNc1nc(-c2cn(C)cn2)nc2sc(-c3ccncc3)c(-c3ccccc3)c12 [drawing 2357] | 51 to 75% | 1 to 25% |
| COc1nc(-c2cn(C)cn2)nc2sc(-c3ccncc3)c(-c3ccccc3)c12 [drawing 2358] | 51 to 75% | 1 to 25% |
| OCC1(c2ccc(-c3nc(-c4ccccn4)nc(-c4ccc(C5(CO)CC5)cc4)c3Oc3ccccc3)cc2)CC1 [drawing 2359] | 0% | 0% |

| SMILES | inhibition at 30 µM [1] | inhibition at 30 µM [2] |
| --- | --- | --- |
| COc1ccc(COC[C@H]2O[C@@H](c3csc4c(=O)[nH]c(-c5ccccn5)nc34)[C@H](O)[C@@H]2O)cc1 [drawing 2360] | 1 to 25% | 26 to 50% |
| OCC1(c2ccc(-c3nc(-c4ccccn4)nc(O)c3Oc3ccccc3)cc2)CC1 [drawing 2361] | 0% | 26 to 50% |
| COCCNc1nc(-c2nccn2C)nc2sc(-c3ccccc3)c(-c3ccccc3)c12 [drawing 2362] | 51 to 75% | 26 to 50% |
| Cn1ccnc1-c1nc(O)c2c(-c3ccccc3)c(-c3ccccc3)sc2n1 [drawing 2363] | 1 to 25% | 26 to 50% |
| Cn1cnc(-c2nc(O)c3c(-c4ccccc4)c(-c4ccc(CNC(=O)OC(C)(C)C)cc4)sc3n2)c1 [drawing 2364] | 1 to 25% | 0% |
| COCCNc1nc(-c2ccccn2)nc2c1c(-c1ccccc1)nn2-c1ccccn1 [drawing 2365] | 76 to 100% | 51 to 75% |
| Oc1nc(-c2ccccn2)nc2c1c(-c1ccccc1)nn2-c1ccccn1 [drawing 2366] | 51 to 75% | 1 to 25% |
| COc1nc(-c2ccccn2)nc2c1c(-c1ccccc1)nn2-c1ccccn1 [drawing 2367] | 76 to 100% | 76 to 100% |
| COCC(C)Nc1nc(-c2ccccn2)nc2sc(-c3ccncc3)c(-c3ccccc3)c12 (stereo not drawn) [drawing 2368] | 0% | 26 to 50% |
| Nc1nc(O)c2sc(-c3cccc(C(=O)NC4CCNC4=O)c3)cc2n1 (stereo not drawn) [drawing 2369] | 1 to 25% | 1 to 25% |
| Nc1nc(O)c2sc(-c3cccc(C(=O)N4CCC(O)C4)c3)cc2n1 (stereo not drawn) [drawing 2370] | 0% | 0% |
| NC(=O)C1CCCN1C(=O)c1cccc(-c2cc3nc(N)nc(O)c3s2)c1 (stereo not drawn) [drawing 2371] | 0% | 0% |
| Nc1nc(O)c2sc(-c3cccc(C(=O)NCc4ncc[nH]4)c3)cc2n1 [drawing 2372] | 0% | 0% |
| Nc1nc(O)c2sc(-c3cccc(C(=O)NCc4cccc(O)n4)c3)cc2n1 [drawing 2373] | 51 to 75% | 0% |
| COC(=O)c1nc(-c2ccccn2)nc(O)c1O [drawing 2374] | 0% | 0% |
| Oc1nc(-c2ccccn2)nc2c(-c3ccccc3)c(-c3ccncc3)sc12 [drawing 2375] | 1 to 25% | 0% |
| Cn1cnc(-c2nc(O)c3sc(-c4ccncc4)c(-c4ccccc4)c3n2)c1 [drawing 2376] | 1 to 25% | 0% |
| COCC(C)Nc1nc(-c2ccccn2)nc(C(=O)NCCCc2c[nH]cn2)c1Oc1ccccc1 (stereo not drawn) [drawing 2377] | 1 to 25% | 0% |
| Nc1nc(-c2ccccn2)nc(C(=O)NCCc2ccncc2)c1Oc1ccccc1 [drawing 2378] | 0% | 0% |
| COc1nc(-c2ccccn2)nc(Oc2cccc(C(F)(F)F)c2)c1OC [drawing 2379] | 1 to 25% | 1 to 25% |
| Oc1nc(-c2ccccn2)nc2c(Br)c(-c3ccccc3)sc12 [drawing 2380] | 1 to 25% | 0% |
| CC(C)(C)c1sc2c(O)nc(-c3ccccn3)nc2c1Br [drawing 2381] | 0% | 1 to 25% |
